Data from patent publication US10611750B2, “Tetrahydroquinoline compositions as bet bromodomain inhibitors” (FORMA Therapeutics, Inc., priority 2013, dated 2020).
Like-named read-outs stand apart in the source and are kept apart here.

What was measured:
[1] = molecular target: T1, BRD4 Bromodomain 1 (BRD4 BD1) (Homo sapiens, UniProt O60885); assay: AlphaScreen binding assay, BRD4 BD1; conditions: His-tagged BRD4 BD1 50 nM, biotinylated H4 (1-21) K5/8/12/16 tetra-acetylated peptide 50 nM, compounds listed under IC50 range headings
T1 construct: 44-168 and BRD4 BD2
How it was run: (§1)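 An AlphaScreen competition format was used with His-BRD4 BD1 or BD2 and biotin-H4 K5/8/12/16-acetyl peptide, each at matched final levels of 50 nM (BD1) or 100 nM (BD2). Incubation in HEPES/NaCl buffer with 0.1% BSA and 0.01% Triton X-100 ran ≥1 h before IC50 determination.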

[2] = molecular target: T2, BRD4 Bromodomain 2 (BRD4 BD2) (Homo sapiens, UniProt O60885); assay: AlphaScreen binding assay, BRD4 BD2; conditions: His-tagged BRD4 BD2 100 nM, biotinylated H4 (1-21) K5/8/12/16 tetra-acetylated peptide 100 nM, compounds listed under IC50 range headings
T2 construct: 333-460 were cloned, expressed, and purified to homogeneity
How it was run: as §1

[3] = test system: acute myelocytic leukemia (AML) cell line MV4-11; assay: Oncology cell growth assay (3-day proliferation, CellTiter-Glo); type: cell-based; conditions: Homo sapiens, MV4-11 cells, 3000 cells/well, compounds listed under IC50 range headings, read-out: MV411 IC50 (gIC50, inhibition of proliferation)
How it was run: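 Compounds were serially diluted 3-fold in DMSO, giving final well concentrations from 10 down to 0.0045 μM. MV4-11 cells were then seeded at 3000 cells/well in RPMI 1640 with 10% FBS and incubated 72 hours. CellTiter-Glo signal was measured and gIC50 obtained by four-parameter logistic regression.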

SMILES	IC50 [1] [µM]	IC50 [2] [µM]	IC50 ([3]; MV4-11, 72 h) [µM]	IC50 ([3]; 72 hours) [µM]
CC(=O)N1c2ccc(-c3cnn(C4CC4)c3)c(Oc3ncccc3C(N)=O)c2CC[C@@H]1C [I-81, (S)-2-(1-acetyl-6-(1-cyclopropyl-1H-pyrazol-4-yl)-2-methyl-1,2,3,4-tetrahydroquinolin-5-yloxy)nicotinamide]	0.1 to 1	0.05 to 0.5	< 0.5	
CC(=O)N1c2ccc(-c3cnn(C4CC4)c3)c(Oc3ncc4cn[nH]c4n3)c2CC[C@@H]1C [I-82, (S)-1-(5-(1H-pyrazolo[3,4-d]pyrimidin-6-yloxy)-6-(1-cyclopropyl-1H-pyrazol-4-yl)-2-methyl-3,4-dihydroquinolin-1(2H)-yl)ethanone]	1 to 10	0.05 to 0.5	0.5 to 1	
CC(=O)N1c2ccc(-c3cnn(C4CC4)c3)c(Oc3nccs3)c2CC[C@@H]1C [I-83, (S)-1-(6-(1-cyclopropyl-1H-pyrazol-4-yl)-2-methyl-5-(thiazol-2-yloxy)-3,4-dihydroquinolin-1(2H)-yl)ethanone]	1 to 10	< 0.05	< 0.5	
CC(=O)N1c2ccc(-c3cnn(C4CC4)c3)c(Oc3ncccc3C#N)c2CC[C@@H]1C [I-84, (S)-2-(1-acetyl-6-(1-cyclopropyl-1H-pyrazol-4-yl)-2-methyl-1,2,3,4-tetrahydroquinolin-5-yloxy)nicotinonitrile]	0.1 to 1	< 0.05	< 0.5	
CC(=O)N1c2ccc(-c3cnn(C4CC4)c3)c(Oc3ncccc3C(F)(F)F)c2CC[C@@H]1C [I-86, (S)-1-(6-(1-cyclopropyl-1H-pyrazol-4-yl)-2-methyl-5-(3-(trifluoromethyl)pyridin-2-yloxy)-3,4-dihydroquinolin-1 (2H)-yl)ethanone]	0.1 to 1	< 0.05	< 0.5	
CC(=O)N1c2ccc(-c3cnn(C4CC4)c3)c(Oc3cnccn3)c2CC[C@@H]1C [I-88, (S)-1-(6-(1-cyclopropyl-1H-pyrazol-4-yl)-2-methyl-5-(pyrazin-2-yloxy)-3,4-dihydroquinolin-1(2H)-yl)ethanone]	0.1 to 1	< 0.05	< 0.5	
CC(=O)N1c2ccc(-c3cnn(C4CC4)c3)c(Oc3ccccn3)c2CC[C@@H]1C [I-89, (S)-1-(6-(1-cyclopropyl-1H-pyrazol-4-yl)-2-methyl-5-(pyridin-2-yloxy)-3,4-dihydroquinolin-1(2H)-yl)ethanone]	0.1 to 1	0.05 to 0.5	< 0.5	
CC(=O)N1c2ccc(-c3cnn(C4CC4)c3)c(Oc3ccc(C#N)nn3)c2CC[C@@H]1C [I-91, (S)-6-(1-acetyl-6-(1-cyclopropyl-1H-pyrazol-4-yl)-2-methyl-1,2,3,4-tetrahydroquinolin-5-yloxy)pyridazine-3-carbonitrile]	0.1 to 1	0.05 to 0.5	< 0.5	
CC(=O)N1c2ccc(-c3cnn(C4CC4)c3)c(Oc3ncc(C)cn3)c2CC[C@@H]1C [I-92, (S)-1-(6-(1-cyclopropyl-1H-pyrazol-4-yl)-2-methyl-5-(5-methylpyrimidin-2-yloxy)-3,4-dihydroquinolin-1 (2H)-yl)ethanone]	0.1 to 1	< 0.05	< 0.5	
CC(=O)N1c2ccc(-c3cnn(C4CC4)c3)c(Oc3ccnc(C(F)(F)F)n3)c2CC[C@@H]1C [I-93, (S)-1-(6-(1-cyclopropyl-1H-pyrazol-4-yl)-2-methyl-5-(2-(trifluoromethyl)pyrimidin-4-yloxy)-3,4-dihydroquinolin-1(2H)-yl)ethanone]	0.1 to 1	0.05 to 0.5	< 0.5	
C[C@H]1CCc2c(ccc(-c3cnn(C4CCNCC4)c3)c2OC2CCC2)N1C(=O)C1CC1 [I-99, (2S)-5-cyclobutoxy-1-cyclopropanecarbonyl-2-methyl-6-[1-(piperidin-4-yl)-1H-pyrazol-4-yl]-1,2,3,4-tetrahydroquinoline]	0.1 to 1	< 0.05	< 0.5	
CCCOc1c(-c2cnn(C3CCNCC3)c2)ccc2c1CC[C@H](C)N2C(=O)C1CC1 [I-100, (S)-cyclopropyl(2-methyl-6-(1-(piperidin-4-yl)-1H-pyrazol-4-yl)-5-propoxy-3,4-dihydroquinolin-1(2H)-yl)methanone]	0.1 to 1	< 0.05	< 0.5	
C[C@H]1CCc2c(ccc(-c3cnn(C4CNC4)c3)c2OC2CCC2)N1C(=O)C1CC1 [I-101, (S)-(6-(1-(azetidin-3-yl)-1H-pyrazol-4-yl)-5-cyclobutoxy-2-methyl-3,4-dihydroquinolin-1(2H)-yl)(cyclopropyl)methanone]	0.1 to 1	< 0.05	< 0.5	
CCCOc1c(-c2cnn(C3CNC3)c2)ccc2c1CC[C@H](C)N2C(=O)C1CC1 [I-102, (S)-(6-(1-(azetidin-3-yl)-1H-pyrazol-4-yl)-2-methyl-5-propoxy-3,4-dihydroquinolin-1(2H)-yl)(cyclopropyl)methanone]	0.1 to 1	< 0.05	< 0.5	
CCCOc1c(-c2cnn(C3CCNCC3)c2)ccc2c1CC[C@H](C)N2C(=O)OC [I-107, (S)-methyl 2-methyl-6-(1-(piperidin-4-yl)-1H-pyrazol-4-yl)-5-propoxy-3,4-dihydroquinoline-1(2H)-carboxylate]	0.1 to 1	0.05 to 0.5		< 0.5
COC(=O)N1c2ccc(-c3cnn(C4CCNC4)c3)c(OC3CCC3)c2CC[C@@H]1C (stereo partly drawn) [I-108, (2S)-methyl 5-cyclobutoxy-2-methyl-6-(1-(pyrrolidin-3-yl)-1H-pyrazol-4-yl)-3,4-dihydroquinoline-1(2H)-carboxylate]	0.1 to 1	< 0.05	< 0.5	

Continued, in another order:

IC50 [1] [µM]	IC50 [2] [µM]	IC50 ([3]; MV4-11, 72 h) [µM]	SMILES	IC50 ([3]; 72 hours) [µM]
< 0.1	< 0.05	< 0.5	CCCOc1c(-c2cnn(C3CCNCC3)c2)ccc2c1CC[C@H](C)N2C(C)=O [I-104, (S)-1-(2-methyl-6-(1-(piperidin-4-yl)-1H-pyrazol-4-yl)-5-propoxy-3,4-dihydroquinolin-1 (2H)-yl)ethanone]	
0.1 to 1	0.05 to 0.5	< 0.5	CC(=O)N1c2ccc(-c3cnn(C4CC4)c3)c(OC3CC3)c2CC[C@@H]1C [I-113, (S)-1-(5-cyclopropoxy-6-(1-cyclopropyl-1H-pyrazol-4-yl)-2-methyl-3,4-dihydroquinolin-1(2H)-yl)ethanone]	
1 to 10	0.05 to 0.5	> 1	CCCOc1c(-c2ccc(S(C)(=O)=O)cn2)ccc2c1CC[C@H](C)N2C(C)=O [I-114, (S)-1-(2-methyl-6-(5-(methylsulfonyl)pyridin-2-yl)-5-propoxy-3,4-dihydroquinolin-1(2H)-yl)ethanone]	
1 to 10	0.05 to 0.5	> 1	CCCOc1c(-c2ccc(NS(C)(=O)=O)cn2)ccc2c1CC[C@H](C)N2C(C)=O [I-115, (S)—N-(6-(1-acetyl-2-methyl-5-propoxy-1,2,3,4-tetrahydroquinolin-6-yl)pyridin-3-yl)methanesulfonamide]	
≥ 10	0.05 to 0.5	> 1	CC(=O)N1c2ccc(-c3ccc(S(C)(=O)=O)cn3)c(OCC(=O)N(C)C)c2CC[C@@H]1C [I-116, (S)-2-(1-acetyl-2-methyl-6-(5-(methylsulfonyl)pyridin-2-yl)-1,2,3,4-tetrahydroquinolin-5-yloxy)-N,N-dimethylacetamide]	
1 to 10	0.05 to 0.5	> 1	CCCOc1c(-c2nc3ccccc3o2)ccc2c1CC[C@H](C)N2C(C)=O [I-117, (S)-1-(6-(benzo[d]oxazol-2-yl)-2-methyl-5-propoxy-3,4-dihydroquinolin-1(2H)-yl)ethanone]	
1 to 10	≥ 0.5	> 1	CCCOc1c(-c2cc3ccccn3n2)ccc2c1CC[C@H](C)N2C(C)=O [I-118, (S)-1-(2-methyl-5-propoxy-6-(pyrazolo[1,5-a]pyridin-2-yl)-3,4-dihydroquinolin-1(2H)-yl)ethanone]	
1 to 10	0.05 to 0.5	0.5 to 1	CCCOc1c(-c2cn3ccccc3n2)ccc2c1CC[C@H](C)N2C(C)=O [I-119, (S)-1-(6-(imidazo[1,2-a]pyridin-2-yl)-2-methyl-5-propoxy-3,4-dihydroquinolin-1(2H)-yl)ethanone]	
1 to 10	≥ 0.5	> 1	CCCOc1c(-c2nc3ccccc3s2)ccc2c1CC[C@H](C)N2C(C)=O [I-120, (S)-1-(6-(benzo[d]thiazol-2-yl)-2-methyl-5-propoxy-3,4-dihydroquinolin-1(2H)-yl)ethanone]	
1 to 10	0.05 to 0.5	0.5 to 1	CCCOc1c(-c2nc3ccccc3[nH]2)ccc2c1CC[C@H](C)N2C(C)=O [I-121, (S)-1-(6-(1H-benzo[d]imidazol-2-yl)-2-methyl-5-propoxy-3,4-dihydroquinolin-1(2H)-yl)ethanone]	
0.1 to 1	< 0.05	< 0.5	COC(=O)N1c2ccc(-c3cnn(C4CCNCC4)c3)c(Oc3ccc(Cl)cc3C#N)c2CC[C@@H]1C [I-132, (S)-methyl 5-(4-chloro-2-cyanophenoxy)-2-methyl-6-(1-(piperidin-4-yl)-1H-pyrazol-4-yl)-3,4-dihydroquinoline-1(2H)-carboxylate]	
